Values after ≈ are worked out from the molar mass of the structure shown. Read-outs that look alike come from different tables or passages of the source.
What was measured:
[1] = tested on: CD3/IL2 stimulated PBMC cells; assay: IFNγ release from CD3/IL2 stimulated PBMC cells; assay type: cell-based; settings: Homo sapiens, CD3/IL2 stimulation, 48 h, ELISA
Procedure: PBMCs from healthy subjects are separated from whole blood using a density gradient (Lymphoprep, Axis-Shield Healthcare). Cells are added to a 96 well plate, and compound at the desired concentration added 2 hours prior to stimulation with a mixture of monoclonal antibody to CD3 (1 μg/ml, eBioscience) and human recombinant IL2 (10 ng/ml, Peprotech). After 48 hours incubation under normal tissue culture conditions, supernatants are collected and IFNγ release determined by Sandwich ELISA (Duo-set, R&D System). The IC50 is determined from the dose response curve.

TYK2 = TYK2 (Homo sapiens (Human), UniProt P29597); assay: KINOMEscan enzyme binding assay (DiscoveRx), TYK2; settings: read-out: Dissociation Constant TYK2
Sequence of TYK2 (P29597 whole entry): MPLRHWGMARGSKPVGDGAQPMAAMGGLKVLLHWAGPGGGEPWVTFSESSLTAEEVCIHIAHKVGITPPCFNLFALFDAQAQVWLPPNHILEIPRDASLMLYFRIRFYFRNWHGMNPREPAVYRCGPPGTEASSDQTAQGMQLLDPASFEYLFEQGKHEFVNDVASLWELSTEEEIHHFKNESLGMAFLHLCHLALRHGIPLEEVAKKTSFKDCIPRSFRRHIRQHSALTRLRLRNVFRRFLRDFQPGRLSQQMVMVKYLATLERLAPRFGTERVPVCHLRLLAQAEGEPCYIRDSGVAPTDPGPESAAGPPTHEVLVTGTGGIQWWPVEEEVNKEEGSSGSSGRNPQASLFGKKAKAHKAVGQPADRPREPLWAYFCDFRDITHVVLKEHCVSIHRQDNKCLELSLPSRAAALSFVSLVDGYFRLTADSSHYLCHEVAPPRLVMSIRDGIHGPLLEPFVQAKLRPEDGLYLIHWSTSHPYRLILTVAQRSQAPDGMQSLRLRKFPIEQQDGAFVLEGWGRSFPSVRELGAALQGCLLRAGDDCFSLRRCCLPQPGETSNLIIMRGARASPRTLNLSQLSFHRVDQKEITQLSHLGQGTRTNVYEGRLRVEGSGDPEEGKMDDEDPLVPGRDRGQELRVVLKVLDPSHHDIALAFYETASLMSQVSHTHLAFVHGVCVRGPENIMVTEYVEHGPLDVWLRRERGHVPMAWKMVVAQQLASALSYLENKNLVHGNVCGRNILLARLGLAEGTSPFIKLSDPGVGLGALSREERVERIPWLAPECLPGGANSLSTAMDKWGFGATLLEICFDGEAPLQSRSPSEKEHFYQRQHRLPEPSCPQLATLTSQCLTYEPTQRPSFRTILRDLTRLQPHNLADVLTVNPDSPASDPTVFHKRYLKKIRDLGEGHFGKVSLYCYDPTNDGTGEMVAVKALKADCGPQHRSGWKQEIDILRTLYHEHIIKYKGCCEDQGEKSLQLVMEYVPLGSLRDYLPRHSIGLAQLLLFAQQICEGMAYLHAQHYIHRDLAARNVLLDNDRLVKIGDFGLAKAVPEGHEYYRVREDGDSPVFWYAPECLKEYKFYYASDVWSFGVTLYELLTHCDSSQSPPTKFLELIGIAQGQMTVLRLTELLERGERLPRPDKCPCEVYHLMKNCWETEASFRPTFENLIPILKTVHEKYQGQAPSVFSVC
Procedure: (§1) These assays may be conducted by DiscoveRx (formerly Ambit; San Diego, Calif.). The percentage inhibition produced by incubation with a test compound may be calculated relative to the non-inhibited control.

[2] = Solubility in fasted-state simulated colonic fluid (FaSSCoF); assay type: physicochemical; settings: 25 °C, pH 6.5, fassgf or other biorelevant, thermodynamic from solid, pH 6.5, 25° C.
Procedure: The solubilities of compounds of the invention in FaSSCoF at pH 6.5 are determined using a modification of a previously-reported procedure (Vertzoni, M., et al. Pharm. Res. 2010, 27, 2187-2196). In place of the bile salt extract employed in the original procedure (which extract is no longer available), the modified procedure uses a mixture of sodium taurochlorate (0.15 g), glycocholic acid (0.15 g), ursodeoxycholic acid (0.05 g), cholic acid (0.05 g), and glycodeoxycholic acid (0.05 g). These five bile acids are ground together with a mortar and pestle to produce a fine white powder that is incorporated into the FaSSCoF, as outlined below.
FaSSCoF medium: Tris(hydroxymethyl)aminomethane (Tris; 0.275 g) and maleic acid (0.44 g) are dissolved in water (35 mL) to give a solution whose pH is adjusted to 6.5 by treatment with 0.5M NaOH (ca. 12 mL). The solution is then made up to 50 mL with water. A portion of this Tris/maleate buffer solution (ca. 25 mL) is added to a 0.5 L round-bottomed flask, before being treated with 0.00565 g of the bile acid mixture described above. Solutions of phosphatidylcholine (0.0111 g) in DCM (0.15 mL) and palmitic acid (0.0013 g) in DCM (0.15 mL) are added, then the organic solvent is evaporated off under reduced pressure at 40° C. until a clear solution, with no perceptible DCM odour, is achieved. The volume of the evaporated solution is adjusted to 50 mL by addition of the remainder of Tris/maleate buffer, then BSA (0.115 g) is added, before being dissolved by gentle agitation.
Solubility Determination: Test compounds are suspended in the pH 6.5 FaSSCoF medium to give a maximum final concentration of 2-10 mg/mL. The suspensions are equilibrated at 25° C. for 24 h, before being filtered through a glass fibre C filter. The filtrates are then diluted as appropriate for injection and quantification by HPLC with reference to a standard. Different volumes of the standard, diluted and undiluted sample solutions are injected and the solubilities are calculated using the peak areas determined by integration of the peak found at the same retention time as the principal peak in the standard injection.

JAK3 = JAK3 (Homo sapiens (Human), UniProt P52333); assay: KINOMEscan enzyme binding assay (DiscoveRx), JAK3; settings: read-out: Dissociation Constant JAK3
Sequence of JAK3 (P52333 whole entry): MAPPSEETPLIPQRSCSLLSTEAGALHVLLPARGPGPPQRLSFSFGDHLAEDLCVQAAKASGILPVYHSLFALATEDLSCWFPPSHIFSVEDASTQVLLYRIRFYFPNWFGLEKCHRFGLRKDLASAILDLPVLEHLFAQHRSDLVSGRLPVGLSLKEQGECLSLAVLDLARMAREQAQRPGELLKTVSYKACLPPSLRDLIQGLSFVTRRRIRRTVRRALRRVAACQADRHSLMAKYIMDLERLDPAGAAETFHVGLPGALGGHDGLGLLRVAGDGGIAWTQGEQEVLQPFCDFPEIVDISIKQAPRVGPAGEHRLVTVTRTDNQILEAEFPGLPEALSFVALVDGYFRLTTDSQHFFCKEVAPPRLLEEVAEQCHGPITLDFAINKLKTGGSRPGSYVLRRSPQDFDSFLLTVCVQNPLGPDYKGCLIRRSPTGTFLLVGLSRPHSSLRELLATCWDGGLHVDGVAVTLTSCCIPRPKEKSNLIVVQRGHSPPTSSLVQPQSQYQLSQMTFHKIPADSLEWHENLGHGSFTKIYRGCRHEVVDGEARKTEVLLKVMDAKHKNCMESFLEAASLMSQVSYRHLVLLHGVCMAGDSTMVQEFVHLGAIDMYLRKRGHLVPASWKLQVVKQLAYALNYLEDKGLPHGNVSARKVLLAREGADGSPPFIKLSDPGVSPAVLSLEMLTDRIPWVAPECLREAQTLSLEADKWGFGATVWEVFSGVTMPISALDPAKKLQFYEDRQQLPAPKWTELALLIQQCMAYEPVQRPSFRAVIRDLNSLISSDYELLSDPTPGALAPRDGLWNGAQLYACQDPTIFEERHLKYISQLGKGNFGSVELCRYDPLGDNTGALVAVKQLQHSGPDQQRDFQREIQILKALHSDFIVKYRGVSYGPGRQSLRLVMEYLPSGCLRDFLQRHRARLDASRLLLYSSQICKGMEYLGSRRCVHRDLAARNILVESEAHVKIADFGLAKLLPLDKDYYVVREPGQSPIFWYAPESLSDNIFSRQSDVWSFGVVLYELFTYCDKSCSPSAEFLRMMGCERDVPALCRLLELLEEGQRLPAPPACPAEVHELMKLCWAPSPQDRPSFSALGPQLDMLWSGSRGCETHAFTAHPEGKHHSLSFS
Procedure: as §1

Jurkat cells = assay: Cell cytotoxicity assay (propidium iodide, flow cytometry); assay type: cell-based, human; settings: 24 h
Procedure: 1×10^5 Jurkat cells (immortalised human T lymphocytes) are added to the appropriate number of wells of a 96 well plate in 100 μL of media (RPMI supplemented with 10% foetal bovine serum). 1 μL of DMSO control (final concentration 1.0% v/v) or test compound (final concentration 20, 5 or 1 μg/mL) is added to the wells and incubated at 37° C., 5% CO2. After 24 hours, the plate is centrifuged at 1200 rpm for 3 minutes and the supernatant discarded. Cells are then resuspended in 150 μL (final concentration 7.5 μg/mL) of propidium iodide (PI) in PBS and incubated at 37° C., 5% CO2 for 15 minutes. After 15 minutes, cells are analysed by flow cytometry (BD accuri) using the FL3 window. The % viability is calculated as the % of cells that are PI negative in the test wells normalised to the DMSO control.

JAK1 = JAK1 (Homo sapiens (Human), UniProt P23458); assay: KINOMEscan enzyme binding assay (DiscoveRx), JAK1; settings: read-out: Dissociation Constant JAK1
Sequence of JAK1 (P23458 whole entry): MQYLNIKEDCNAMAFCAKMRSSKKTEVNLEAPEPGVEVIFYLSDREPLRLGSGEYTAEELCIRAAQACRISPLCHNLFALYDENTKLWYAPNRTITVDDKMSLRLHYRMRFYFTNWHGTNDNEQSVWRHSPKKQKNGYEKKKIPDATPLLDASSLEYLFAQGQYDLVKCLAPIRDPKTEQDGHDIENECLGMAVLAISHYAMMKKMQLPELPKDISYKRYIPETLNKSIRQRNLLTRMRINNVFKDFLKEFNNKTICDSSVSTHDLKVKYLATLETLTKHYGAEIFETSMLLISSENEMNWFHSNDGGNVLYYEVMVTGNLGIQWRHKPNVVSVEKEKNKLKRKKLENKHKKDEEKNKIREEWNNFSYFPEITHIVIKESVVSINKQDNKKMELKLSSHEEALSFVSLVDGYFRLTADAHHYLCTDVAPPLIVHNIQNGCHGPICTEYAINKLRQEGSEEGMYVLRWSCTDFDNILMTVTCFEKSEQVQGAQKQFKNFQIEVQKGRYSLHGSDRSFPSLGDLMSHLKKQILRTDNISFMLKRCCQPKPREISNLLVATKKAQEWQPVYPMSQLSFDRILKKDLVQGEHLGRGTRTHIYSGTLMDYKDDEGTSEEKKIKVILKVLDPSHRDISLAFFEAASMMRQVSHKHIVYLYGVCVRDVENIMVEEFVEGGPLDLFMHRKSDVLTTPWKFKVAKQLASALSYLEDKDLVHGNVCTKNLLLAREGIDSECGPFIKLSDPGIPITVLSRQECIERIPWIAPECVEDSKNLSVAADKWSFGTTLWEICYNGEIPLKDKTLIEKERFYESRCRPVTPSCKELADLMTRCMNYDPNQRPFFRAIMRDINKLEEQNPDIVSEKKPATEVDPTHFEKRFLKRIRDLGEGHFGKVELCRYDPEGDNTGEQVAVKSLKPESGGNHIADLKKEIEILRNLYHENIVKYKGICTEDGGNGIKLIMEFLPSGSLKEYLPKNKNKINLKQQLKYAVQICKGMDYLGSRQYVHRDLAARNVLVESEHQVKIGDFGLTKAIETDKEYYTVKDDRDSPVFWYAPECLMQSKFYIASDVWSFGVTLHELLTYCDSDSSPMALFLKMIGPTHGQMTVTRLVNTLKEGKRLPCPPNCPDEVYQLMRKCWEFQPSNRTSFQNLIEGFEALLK
Procedure: as §1

JAK2 = JAK2 (Homo sapiens (Human), UniProt O60674); assay: KINOMEscan enzyme binding assay (DiscoveRx), JAK2; settings: read-out: Dissociation Constant JAK2
Sequence of JAK2 (O60674 whole entry): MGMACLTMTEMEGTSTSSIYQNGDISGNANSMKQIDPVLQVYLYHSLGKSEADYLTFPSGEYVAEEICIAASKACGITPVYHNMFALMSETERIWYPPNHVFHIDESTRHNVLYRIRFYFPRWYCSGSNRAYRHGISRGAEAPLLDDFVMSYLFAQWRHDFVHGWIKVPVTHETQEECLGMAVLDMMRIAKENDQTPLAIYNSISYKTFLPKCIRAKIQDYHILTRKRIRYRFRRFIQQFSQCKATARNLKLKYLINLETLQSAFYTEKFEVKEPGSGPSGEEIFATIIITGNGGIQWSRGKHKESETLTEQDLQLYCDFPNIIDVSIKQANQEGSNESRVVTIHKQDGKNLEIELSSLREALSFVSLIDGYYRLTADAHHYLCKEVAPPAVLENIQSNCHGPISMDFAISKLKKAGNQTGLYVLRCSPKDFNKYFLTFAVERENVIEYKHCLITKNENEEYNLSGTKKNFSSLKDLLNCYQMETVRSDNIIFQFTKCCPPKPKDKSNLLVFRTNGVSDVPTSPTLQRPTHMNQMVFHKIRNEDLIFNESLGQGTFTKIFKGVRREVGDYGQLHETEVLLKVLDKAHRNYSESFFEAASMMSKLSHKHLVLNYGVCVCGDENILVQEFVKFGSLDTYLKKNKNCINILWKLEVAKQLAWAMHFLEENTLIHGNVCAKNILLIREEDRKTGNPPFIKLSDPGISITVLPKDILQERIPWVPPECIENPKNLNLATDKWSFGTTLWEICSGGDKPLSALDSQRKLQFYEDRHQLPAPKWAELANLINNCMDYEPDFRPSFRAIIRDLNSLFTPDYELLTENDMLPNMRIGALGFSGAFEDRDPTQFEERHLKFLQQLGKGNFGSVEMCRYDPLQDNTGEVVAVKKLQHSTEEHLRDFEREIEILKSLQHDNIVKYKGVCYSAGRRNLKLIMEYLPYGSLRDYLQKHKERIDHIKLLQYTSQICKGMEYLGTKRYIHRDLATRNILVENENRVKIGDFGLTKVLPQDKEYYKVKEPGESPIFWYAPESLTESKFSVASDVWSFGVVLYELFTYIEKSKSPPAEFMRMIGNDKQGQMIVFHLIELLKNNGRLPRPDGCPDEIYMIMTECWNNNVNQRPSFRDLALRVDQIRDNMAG
Procedure: as §1

SMILES | IC50 [1] | Kd (TYK2) | solubility thermodynamic at 24 h ([2]; Run 1, read-out: pH 6.5 FaSSCoF Solubility, Run 1) | solubility thermodynamic at 24 h ([2]; Run 2, read-out: pH 6.5 FaSSCoF Solubility, Run 2) | Kd (JAK3) | % viability at 1 μg/mL (Jurkat cells) | Kd (JAK1) | Kd (JAK2)
CCc1cc(O)c(F)cc1-c1ccc2c(-c3nc4c([nH]3)CCN(C(=O)N3CCC(N5CCCCC5)CC3)C4)n[nH]c2c1 [Example 2(a), [1,4′-bipiperidin]-1′-yl(2-(6-(2-ethyl-5-fluoro-4-hydroxyphenyl)-1H-indazol-3-yl)-1,4,6,7-tetrahydro-5H-imidazo[4,5-c]pyridin-5-yl)methanone] | 48.4 nM | 0.069 nM | 30 µg/mL (≈ 52.5 µM) | 30 µg/mL (≈ 52.5 µM) | 0.046 nM | 59% | 0.6 nM | 0.034 nM
CCc1cc(O)c(F)cc1-c1ccc2c(-c3nc4c([nH]3)CCN(S(=O)(=O)N3CCOCC3)C4)n[nH]c2c1 [Example 6(e), 5-ethyl-2-fluoro-4-(3-(5-(morpholinosulfonyl)-4,5,6,7-tetrahydro-1H-imidazo[4,5-c]pyridin-2-yl)-1H-indazol-6-yl)phenol] | 4.7 nM |  |  |  |  | 64% |  | 
CCc1cc(O)c(F)cc1-c1ccc2c(-c3nc4c([nH]3)CCN(S(=O)(=O)N3CCN(C)CC3)C4)n[nH]c2c1 [Example 6(f), 5-ethyl-2-fluoro-4-(3-(5-((4-methylpiperazin-1-yl)sulfonyl)-4,5,6,7-tetrahydro-1H-imidazo[4,5-c]pyridin-2-yl)-1H-indazol-6-yl)phenol] | 9 nM |  |  |  |  | 29% |  | 
CCc1cc(O)c(F)cc1-c1ccc2c(-c3nc4c([nH]3)CCN(S(=O)(=O)N3CCS(=O)(=O)CC3)C4)n[nH]c2c1 [Example 6(g), 4-((2-(6-(2-ethyl-5-fluoro-4-hydroxyphenyl)-1H-indazol-3-yl)-6,7-dihydro-1H-imidazo[4,5-c]pyridin-5(4H)-yl)sulfonyl)thiomorpholine 1,1-dioxide] | 7.2 nM |  |  |  |  | 88% |  | 
CCc1cc(O)c(F)cc1-c1ccc2c(-c3nc4c([nH]3)CCN(S(=O)(=O)N3CCN(C=O)CC3)C4)n[nH]c2c1 [Example 6(h), 4-((2-(6-(2-ethyl-5-fluoro-4-hydroxyphenyl)-1H-indazol-3-yl)-6,7-dihydro-1H-imidazo[4,5-c]pyridin-5(4H)-yl)sulfonyl)piperazine-1-carbaldehyde] | 37.4 nM |  |  |  |  | 93% |  | 
CCc1cc(O)c(F)cc1-c1ccc2c(-c3nc4c([nH]3)CCN(S(=O)(=O)N3CCC(OC)CC3)C4)n[nH]c2c1 [Example 6(i), 5-Ethyl-2-fluoro-4-(3-(5-((4-methoxypiperidin-1-yl)sulfonyl)-4,5,6,7-tetrahydro-1H-imidazo[4,5-c]pyridin-2-yl)-1H-indazol-6-yl)phenol] | 14 nM |  |  |  |  | 86% |  | 
